Reference: patent publication US20130237601A1, “COMPOSITION FOR THE TREATMENT AND/OR PREVENTION OF FIRE BLIGHT” (LANXESS DISTRIBUTION GMBH, priority 2006, published 2013)
Where a name gives a salt, the structure may show the parent alone.

System: Erwinia amylovora
Assay: Test for inhibitory activity against Erwinia amylovora (inhibitory zone on CYE medium plates)
Type: cell-based
Conditions: after 24 hours, read-out: Inhibitory zone diameter
Experimental: 10 μl of an Erwinia amylovora suspension were plated onto CYE medium at a density of 10^8 cfu/ml. Thereafter, a hole 5 mm in diameter was punched into the center of the plates, and 20 μl of the test solution were introduced. After 24 hours, the inhibitory zone was measured. The reference substance was streptomycin sulfate, and the negative control was tap water.
The product used was an aqueous solution of the preparation according to the invention in the form of granules of formic acid and/or a salt of formic acid, in particular calcium formate, whose content in formic acid and/or a salt of formic acid, in particular calcium formate, was approximately 80% by weight. This preparation was diluted with tap water to give the concentrations stated (based on the granules).

[H]/N=C(/N)N[C@H]1[C@H](O)[C@@H](O)[C@H](O[C@@H]2O[C@@H](C)[C@](O)(C=O)[C@H]2O[C@@H]2O[C@@H](CO)[C@H](O)[C@@H](O)[C@@H]2NC)[C@@H](N/C(N)=N\[H])[C@@H]1O [Streptomycin sulfate, streptomycin sulfate]
zone of inhibition at 0.001 % strength (concentration 0.001% by weight): 16 mm | zone of inhibition at 0.01 % strength (concentration 0.01% by weight): 20 mm | zone of inhibition at 0.1 % strength (concentration 0.1% by weight): 24 mm
